Read-outs that look alike come from different tables or passages of the source.
Experiments:
[1] = system: psoriasis-like mouse model induced by imiquimod; experiment: Efficacy test in psoriasis-like mouse model induced by imiquimod (PASI score); assay type: in vivo, Balb/c mice
Method: Experimental animal: Balb/c mice.
• (1) negative control group (applying Vaseline, administering solvent intragastrically), • (2) model control group [applying imiquimod (IMQ)], • (3) administration group (applying IMQ, administering Compound 7, Compound 8, Compound 9, Compound 10, and Compound No. 146 intragastrically); • wherein, “Compound No. 146” refers to the compound in Example 146 of reference WO2014074661, which was prepared according to the method described therein.
(§1) Administration dosage and method: 20 mg/kg, BID, intragastric administration.
Experiment process: On Day 0, the animals were subjected to hair shaving on the test area of the back, and then they were grouped. From Day 1 to Day 7, one hour after the first administration in every morning, 40 mg of 5% imiquimod cream was applied once to the test area on the back, after that, a second administration was conducted on the same day. The skin lesion symptoms of psoriasis and efficacy were evaluated through Psoriasis Area and Severity Index (PASI) score (erythema, scale, thickening degree). The higher the score, the more severe the symptoms are.
PASI score results on day 7 are listed in the table below, wherein, • “+” represents a score of ≥6; • “++” represents a score of greater than 5 and less than 6; • “+++” represents a score of greater than 4 and less than or equal to 5; • “++++” represents a score of less than or equal to 4.
By using the same scheme as test example 1, pharmaceutical efficacy in psoriasis-like mouse model induced by imiquimod was studied.
By using the same scheme as test example 1, pharmaceutical efficacy in psoriasis-like mouse model induced by imiquimod was studied. PASI score results on Day 7 are listed in the table below, wherein, • “+” represents a score of ≥6; • “++” represents a score of greater than 5 and less than 6; • “+++” represents a score of greater than 4 and less than or equal to 5; • “++++” represents a score of less than or equal to 4.

[2] = Pharmacokinetic study in vivo; details: rat, plasma; male SD rats; 1 mg/kg IV, 10 mg/kg PO (intragastric), single administration; read-out: Absolute bioavailability(F %)
Method: Experimental animal: 8 to 10 week-old male SD rats, fasted 12 hours before administration. Intragastric administration: mixed solution (ethanol+TPGS+PEG300=5:5:90) was used as the administration solvent. Injection administration: mixed solution (PEG400+ddH20=80:20) was used as the administration solvent. Administration capacity: 5 ml/kg. Animal grouping: intravenous IV group and intragastric PO group, with 3 male SD rats in each group. Administration route and dosage: 1 mg/kg for intravenous IV group; 10 mg/kg for intragastric PO group. Administration frequency: single administration. • IV blood collection points: 5 minutes, 15 minutes, 30 minutes, 1 hour, 2 hours, 4 hours, 6 hours, 8 hours, and 24 hours after administration; • PO blood collection points: 15 minutes, 30 minutes, 1 hour, 2 hours, 4 hours, 6 hours, 8 hours, and 24 hours after administration. The whole blood of rat was centrifuged at 10000 rpm for 5 minutes to separate plasma, which was stored at 4° C. 0.1 ml of the plasma was taken, added with 0.2 ml of acetonitrile, vortexed for 1 minute, and centrifuged at 10000 rpm for 5 minutes to take the supernatant, which was sent for analysis of drug content after 0.22 μm filtration.

TYK2-JH2 = TYK2-JH2 (Homo sapiens, UniProt P29597); experiment: Enzymology experiment in vitro: TYK2-JH2 binding (Tb antibody/Tracer fluorescence ratio); details: for IC50: read-out: TYK2-JH2 binding inhibitory activity (IC50 value)
IL-17F = experiment: Rat model with increased IL-17 induced by imiquimod, intragastric administration; assay type: in vivo, SD rats; details: for skin lesions in rats: after treatment by intragastric administration
Method: Experimental animal: 8 to 10-week old SD rats, half male and half female.
• (1) negative control group (applying Vaseline, administering solvent intragastrically), • (2) model control group [applying imiquimod (IMQ)], • (3) administration group (applying IMQ, administering the compounds of the present invention intragastrically).
as §1
Model establishment: SD rat was subjected to application of 40 mg of imiquimod ointment on its back skin once a day to construct the rat model. […]
By using the same scheme as biological test example 8, the efficacy of the compounds of the present invention was evaluated, and the following test results were obtained: […]

[3] = system: pSTAT5 expression in CD3+ cells; experiment: Inhibition of pSTAT5 expression in CD3+ cells of IFN-alpha stimulated human PBMC by FACS; assay type: cell-based; details: read-out: Inhibitory activity on p-STAT5 expression (IC50 value)
Method: Compound dilution and preparation: The test compound was prepared into a 10 mM solution using DMSO, and diluted in DMSO to obtain a solution with a gradient of different concentrations which was 500 times of the final concentration. 5 μL of the diluted compound was transferred into 120 μL of PBS solution containing 0.1% BSA. Positive and negative control groups were set up with 0.2% DMSO ultimately contained in each group.
• 1) Human PBMC cells were added into a 96-well cell culture plate, with 0.5 million cells and a volume of 67.5 μL per well. • 2) 3.5 μL of the diluted compound was added and mixed evenly. • 3) The incubation was carried out in a 37° C. incubator for 60 minutes. • 4) IFN-alpha was diluted to 600 ng/ml in DPBS containing 0.1% BSA. After the above 60-minute incubation, 5 μL of PE-anti-hCD3 antibody was added into each well, then 4 μL of the diluted IFN-alpha was also added into each well. • 5) The incubation was carried out in a 37° C. incubator for 30 minutes. • 6) All cells were transferred into a 96-deep-well plate and added with 1 mL of Lyse/fix buffer preheated at 37° C. • 7) The incubation was carried out in dark at 37° C. for 10 minutes. • 8) The plate was centrifuged at 600 g for 5 minutes with the supernatant abandoned, then washed twice with 1 mL of PBS and centrifuged. • 9) 1 mL of Perm buffer III was added into the cell precipitation. • 10) The incubation was carried out in dark at 4° C. for 30 minutes. • 11) The plate was centrifuged at 600 g for 5 minutes with the supernatant abandoned, then washed twice with 1 mL of PBS and centrifuged. • 12) APC anti-human pSTAT5 antibody was diluted 200 times in Staining buffer, then added into the cell wells with 100 μL per well, and mixed evenly. • 13) The incubation was carried out at room temperature for 40 minutes. • 14) The plate was washed twice with 1 mL of Staining buffer per well, and centrifuged at 600 g for 5 minutes. • 15) After the supernatant was abandoned, the cell precipitation was resuspended in 300 μL of Staining buffer. • 16) The sample was loaded and analyzed in a Beckman CytoFlex flow cytometer.

[4] = Test Example 6, same scheme as test example 1, day 7
[5] = Test Example 8, SD rats, imiquimod, 20 mg/kg BID intragastric, day 6
[6] = Test Example 1, Balb/c mice, imiquimod, 20 mg/kg BID intragastric, day 7, higher score = more severe
[7] = human PBMC, CD3+ cells, IFN-alpha stimulation, FACS
[8] = Test Example 9, same scheme as test example 8

Sequence of TYK2-JH2 (P29597 589-875 limits assumed): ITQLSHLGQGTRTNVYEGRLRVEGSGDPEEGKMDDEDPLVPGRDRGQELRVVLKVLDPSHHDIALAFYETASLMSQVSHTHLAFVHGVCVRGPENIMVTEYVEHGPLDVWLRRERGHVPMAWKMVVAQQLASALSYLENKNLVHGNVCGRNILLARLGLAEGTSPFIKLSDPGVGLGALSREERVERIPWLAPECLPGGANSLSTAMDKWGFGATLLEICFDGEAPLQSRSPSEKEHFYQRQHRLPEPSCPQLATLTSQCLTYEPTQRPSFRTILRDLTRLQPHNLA

[2H]C([2H])([2H])NC(=O)c1nnc(NC(=O)C2CC2)cc1Nc1cccc(-n2ccnn2)c1OC [Compound 1-6]
PASI score [1, 4]: ++ (a score of greater than 5 and less than 6)

[2H]C([2H])([2H])NC(=O)c1nnc(NC(=O)C2CC2)cc1Nc1cccc(-c2ncn(C3(C(=O)OC)CC3)n2)c1OC [Compound 1-7]
PASI score [1, 4]: ++ (a score of greater than 5 and less than 6)

[2H]C([2H])([2H])NC(=O)c1nnc(NC(=O)C2CC2)cc1Nc1cccc(-c2ncn(COCC[Si](C)(C)C)n2)c1OC [Compound 1-3]
PASI score [1, 4]: ++ (a score of greater than 5 and less than 6)

[2H]C([2H])([2H])NC(=O)c1nnc(NS(=O)(=O)C2CC2)cc1Nc1cccc(-c2ncn(C)n2)c1OC [Compound 1-8]
PASI score [1, 4]: + (a score of ≥6)

[2H]C([2H])([2H])NC(=O)c1nnc(NC(=O)C2([2H])CC2)cc1Nc1nccc(-c2ncn(CC#C)n2)c1OC [Compound 11]
bioavailability [2]: 97.8% | IC50 (TYK2-JH2): < 0.1 nM | Content level of IL-17F in skin (IL-17F; [5]): A (an IL-17F content less than 30 pg/mL) | skin lesions in rats (IL-17F): significantly reduced | PASI score ([1]; Test Example 2, same scheme as test example 1, day 7): ++++ (a score of less than or equal to 4) | PASI score [1, 4]: ++++ (a score of less than or equal to 4) | IC50 ([3]; Homo sapiens, PBMC): < 1 nM

[2H]C([2H])([2H])NC(=O)c1nnc(NC(=O)C=C)cc1Nc1cccc(-c2ncn(C)n2)c1OC [Compound 1-9]
PASI score [1, 4]: + (a score of ≥6)

[2H]C([2H])([2H])NC(=O)c1nnc(NC(=O)C2CC2)cc1Nc1nccc(-c2ncn(CC#C)n2)c1OC [Compound 7]
IC50 (TYK2-JH2): < 0.1 nM | Content level of IL-17F in skin (IL-17F; [5]): A (an IL-17F content less than 30 pg/mL) | skin lesions in rats (IL-17F): significantly reduced | PASI score [1, 6]: ++++ (a score of less than or equal to 4) | PASI score [1, 4]: ++++ (a score of less than or equal to 4) | IC50 ([3]; Homo sapiens, PBMC): < 1 nM

[2H]C([2H])([2H])NC(=O)c1nnc(NC(=O)C2CC2)cc1Nc1cccc(-n2cccn2)c1OC [Compound 1-5]
PASI score [1, 4]: ++ (a score of greater than 5 and less than 6)

[2H]C([2H])([2H])NC(=O)c1nnc(NC(=O)C2CC2)cc1Nc1cccc(-c2nnn(CC#C)n2)c1OC [Compound 2-1B-1]
IC50 (TYK2-JH2): 0.1 to 0.5 nM | PASI score [1, 4]: ++ (a score of greater than 5 and less than 6) | IC50 [3, 7]: 5 to 10 nM

[2H]C#CC([2H])([2H])n1cnc(-c2ccnc(Nc3cc(NC(=O)C4CC4)nnc3C(=O)NC([2H])([2H])[2H])c2OC)n1 [Compound 9]
IC50 (TYK2-JH2): < 0.1 nM | PASI score [1, 6]: ++++ (a score of less than or equal to 4) | PASI score [1, 4]: ++++ (a score of less than or equal to 4) | IC50 ([3]; Homo sapiens, PBMC): < 1 nM

[2H]C([2H])([2H])NC(=O)c1nnc(NC(=O)C2CC2)cc1Nc1nccc(-c2ncn(C([2H])([2H])C#C)n2)c1OC [Compound 8]
IC50 (TYK2-JH2): < 0.1 nM | PASI score [1, 6]: ++++ (a score of less than or equal to 4) | PASI score [1, 4]: ++++ (a score of less than or equal to 4) | IC50 ([3]; Homo sapiens, PBMC): < 1 nM

[2H]C([2H])([2H])NC(=O)c1nnc(NC(=O)C2CC2)nc1Nc1cccc(-c2ncn(CC#C)n2)c1OC [Compound 2-1B-2]
IC50 (TYK2-JH2): 0.5 to 1 nM | PASI score [1, 4]: ++ (a score of greater than 5 and less than 6) | IC50 [3, 7]: 5 to 10 nM

[2H]C([2H])([2H])NC(=O)c1nnc(NC(=O)C2CC2)cc1Nc1cccc(-c2ccn(CC#C)n2)c1OC [Compound 2-1B-7]
IC50 (TYK2-JH2): 0.1 to 0.5 nM | PASI score [1, 4]: ++ (a score of greater than 5 and less than 6) | IC50 [3, 7]: 5 to 10 nM

[2H]C([2H])([2H])NC(=O)c1nnc(NC(=O)C2CC2([2H])[2H])cc1Nc1nccc(-c2ncn(CC#C)n2)c1OC (centres unmarked) [Compound 10]
effect on the activity of TYK2-JH2 (in words) (TYK2-JH2): have inhibitory effects on the activity of TYK2-JH2 | PASI score [1, 6]: ++++ (a score of less than or equal to 4) | IC50 ([3]; Homo sapiens, PBMC): < 1 nM

[2H]C([2H])([2H])NC(=O)c1nnc(NC(=S)C2CC2)cc1Nc1nccc(-c2ncn(C)n2)c1OC [Compound 2-1A-1]
IC50 (TYK2-JH2): < 0.1 nM | Content level of IL-17F in skin (IL-17F; [8]): A (an IL-17F content less than 30 pg/mL) | skin lesions in rats (IL-17F): significantly reduced | PASI score [1, 4]: ++++ (a score of less than or equal to 4) | IC50 [3, 7]: < 1 nM

[2H]C([2H])([2H])NC(=O)c1nnc(NC(=N)C2CC2)cc1Nc1cccc(-c2ncn(C)n2)c1OC [Compound 1-1-1]
Content level of IL-17F in skin (IL-17F; [8]): D (an IL-17F content ranging from 300 pg/mL to 400 pg/mL) | PASI score [1, 4]: + (a score of ≥6)

[2H]C([2H])([2H])NC(=O)c1nnc(NC(=O)C2CC2)cc1Nc1cccc(-c2ncn(CCNC(C)=S)n2)c1OC [Compound 1-4]
PASI score [1, 4]: ++ (a score of greater than 5 and less than 6)

From patent publication US20240382477A1, “NITROGEN-CONTAINING HETEROCYCLIC PYRIDINE COMPOUND” (SHANGHAI ZHEYE BIOTECHNOLOGY CO. LTD., priority 2021, published 2024)
